Assay results reported in ChEMBL document CHEMBL1148535, “Hexylitaconic acid: a new inhibitor of p53-HDM2 interaction isolated from a marine-derived fungus, Arthrinium sp” (Bioorg Med Chem Lett, 2006).
Calls of active or inactive are those of the source. No cut-off for these calls is given here.

Legend:
[1] = molecular target: T1, E3 ubiquitin-protein ligase Mdm2 (Homo sapiens, UniProt Q00987); assay: Inhibition of p53-HDM2 interaction at 50 ug/ml
Target sequence in this assay (Q00987 whole entry, looked up): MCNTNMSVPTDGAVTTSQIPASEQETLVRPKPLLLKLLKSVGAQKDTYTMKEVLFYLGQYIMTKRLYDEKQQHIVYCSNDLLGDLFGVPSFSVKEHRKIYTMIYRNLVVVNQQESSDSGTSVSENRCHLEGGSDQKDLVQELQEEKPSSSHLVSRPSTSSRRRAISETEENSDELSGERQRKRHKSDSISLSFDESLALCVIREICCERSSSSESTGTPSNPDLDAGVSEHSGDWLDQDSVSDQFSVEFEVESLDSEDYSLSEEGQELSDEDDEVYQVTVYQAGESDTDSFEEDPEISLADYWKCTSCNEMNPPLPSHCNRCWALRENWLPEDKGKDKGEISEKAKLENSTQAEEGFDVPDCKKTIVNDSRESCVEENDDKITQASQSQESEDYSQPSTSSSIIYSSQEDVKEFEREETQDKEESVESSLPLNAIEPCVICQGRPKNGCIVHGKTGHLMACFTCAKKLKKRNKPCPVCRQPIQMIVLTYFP

[2] = molecular target: T1, E3 ubiquitin-protein ligase Mdm2; assay: Inhibition of p53-HDM2 interaction
Target sequence in this assay (Q00987 whole entry): as the sequence (Q00987 whole entry, looked up) above

| SMILES | Activity [1] | IC50 [2] [µM] |
| --- | --- | --- |
| C=C(C(=O)O)C(CCCCCC)C(=O)OC (stereo unspecified) | inactive | – |
| CCCCCCC(C(=O)OC)C(C)C(=O)O (stereo unspecified) | inactive | – |
| C=C(C(=O)O)C(CCCCCC)C(=O)O (stereo unspecified) [HEXYLITACONIC ACID] | – | 233 |
| CCCCCCC(C(=O)O)C(C)C(=O)O (stereo unspecified) | inactive | – |
| C=C(CC(=O)O)C(=O)O | inactive | – |
| O=C(O)CCC(=O)O | inactive | – |
